Measured values from PubChem BioAssay (NCI).
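Step 1: Grow cells in 96-well plates. Step 2: Expose to compound for 48 hours at 5 concentrations. Step 3: Interpolate endpoints linearly; if unreached, use highest concentration. TGI: total growth inhibition.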

Experiments:
Assay in all cases: DTP human tumour cell line panel, 48 h
[1] = test system: KM12 colon
[2] = test system: U251 CNS
[3] = test system: SK-MEL-28 melanoma
[4] = test system: OVCAR-4 ovarian
[5] = test system: NCI-H460 lung
[6] = test system: NCI-H522 lung
[7] = test system: NCI-H23 lung
[8] = test system: ACHN renal
[9] = test system: NCI-H226 lung
[10] = test system: SW-620 colon
[11] = test system: UO-31 renal
[12] = test system: M19-MEL melanoma
[13] = test system: SNB-78 CNS
[14] = test system: HCT-15 colon
[15] = test system: SK-MEL-2 melanoma
[16] = test system: CCRF-CEM leukemia
[17] = test system: SNB-75 CNS
[18] = test system: SK-OV-3 ovarian
[19] = test system: MOLT-4 leukemia
[20] = test system: UACC-62 melanoma
[21] = test system: SNB-19 CNS
[22] = test system: A549 NSCLC
[23] = test system: SF-539 CNS
[24] = test system: HL-60(TB) leukemia
[25] = test system: TK-10 renal
[26] = test system: EKVX NSCLC
[27] = test system: SF-268 CNS
[28] = test system: 786-0 renal
[29] = test system: UACC-257 melanoma
[30] = test system: OVCAR-8 ovarian
[31] = test system: IGROV1 ovarian
[32] = test system: SN12C renal
[33] = test system: K-562 leukemia
[34] = test system: DMS 273 small cell lung
[35] = test system: COLO 205 colon
[36] = test system: SF-295 CNS
[37] = test system: M14 melanoma
[38] = test system: LXFL 529 NSCLC
[39] = test system: OVCAR-3 ovarian
[40] = test system: XF 498 CNS
[41] = test system: HCC-2998 colon
[42] = test system: MALME-3M melanoma
[43] = test system: RXF 393 renal
[44] = test system: SR leukemia
[45] = test system: HCT-116 colon
[46] = test system: HOP-62 NSCLC
[47] = test system: DLD-1 colon
[48] = test system: KM20L2 colon
[49] = test system: LOX IMVI melanoma
[50] = test system: SK-MEL-5 melanoma
[51] = test system: HT29 colon
[52] = test system: HOP-92 NSCLC
[53] = test system: CAKI-1 renal
[54] = test system: T-47D breast
[55] = test system: MCF7 breast
[56] = test system: OVCAR-5 ovarian
[57] = test system: MDA-MB-435
[58] = test system: NCI/ADR-RES ovarian
[59] = test system: MDA-N
[60] = test system: DU-145 prostate
[61] = test system: HS 578T breast
[62] = test system: MDA-MB-231 breast
[63] = test system: A498 renal
[64] = test system: BT-549 breast
[65] = test system: RPMI-8226 leukemia
[66] = test system: PC-3 prostate

## Cc1nc2c(n1CCC(C)C)C(=O)c1ccccc1C2=O
[1]
  TGI: > 100 µM
[2]
  TGI: 60.4 µM
[3]
  TGI: 38.8 µM
[4]
  TGI: > 100 µM
[5]
  TGI: 21.1 µM
[6]
  TGI: 55.9 µM
[7]
  TGI: 44.9 µM
[8]
  TGI: > 100 µM
[9]
  TGI: > 100 µM
[10]
  TGI: > 100 µM
[11]
  TGI: 86.7 µM
[12]
  TGI: 28.5 µM
[13]
  TGI: > 100 µM
[14]
  TGI: > 100 µM
[15]
  TGI: 34.6 µM
[16]
  TGI: 53.9 µM
[17]
  TGI: 63 µM
[18]
  TGI: > 100 µM
[19]
  TGI: 76.2 µM
[20]
  TGI: 27 µM
[21]
  TGI: > 100 µM
[22]
  TGI: > 100 µM
[23]
  TGI: 25.4 µM
[24]
  TGI: 28.1 µM
[25]
  TGI: > 100 µM
[26]
  TGI: 92 µM
[27]
  TGI: 43.1 µM
[28]
  TGI: > 100 µM
[29]
  TGI: 56.7 µM
[30]
  TGI: > 100 µM
[31]
  TGI: 58.9 µM
[32]
  TGI: 64.3 µM
[33]
  TGI: 69.1 µM
[34]
  TGI: 29.4 µM
[35]
  TGI: 30.8 µM
[36]
  TGI: 67.3 µM
[37]
  TGI: 38 µM
[38]
  TGI: > 100 µM
[39]
  TGI: 71.4 µM
[40]
  TGI: 36.4 µM
[41]
  TGI: > 100 µM
[42]
  TGI: 55.3 µM
[43]
  TGI: 79.7 µM
[44]
  TGI: 37.6 µM
[45]
  TGI: 22.6 µM
[46]
  TGI: 50.7 µM
[47]
  TGI: > 100 µM
[48]
  TGI: > 100 µM
[49]
  TGI: 30.9 µM
[50]
  TGI: 28.4 µM
[51]
  TGI: > 100 µM

## COc1ccc(/C=C(\C(=O)OCC(C)C)c2ccc(OC)c(OC)c2)cc1OC
[52]
  TGI: > 100 µM
[2]
  TGI: > 100 µM
[3]
  TGI: > 100 µM
[53]
  TGI: > 100 µM
[4]
  TGI: > 100 µM
[54]
  TGI: > 100 µM
[5]
  TGI: > 100 µM
[55]
  TGI: > 100 µM
[6]
  TGI: > 100 µM
[7]
  TGI: > 100 µM
[8]
  TGI: > 100 µM
[9]
  TGI: > 100 µM
[10]
  TGI: > 100 µM
[11]
  TGI: > 100 µM
[14]
  TGI: > 100 µM
[15]
  TGI: > 100 µM
[16]
  TGI: > 100 µM
[56]
  TGI: > 100 µM
[17]
  TGI: > 100 µM
[57]
  TGI: > 100 µM
[19]
  TGI: > 100 µM
[20]
  TGI: > 100 µM
[21]
  TGI: > 100 µM
[22]
  TGI: > 100 µM
[23]
  TGI: > 100 µM
[24]
  TGI: > 100 µM
[25]
  TGI: > 100 µM
[26]
  TGI: > 100 µM
[58]
  TGI: > 100 µM
[27]
  TGI: > 100 µM
[59]
  TGI: > 100 µM
[28]
  TGI: > 100 µM
[29]
  TGI: > 100 µM
[30]
  TGI: > 100 µM
[60]
  TGI: > 100 µM
[31]
  TGI: > 100 µM
[61]
  TGI: > 100 µM
[32]
  TGI: > 100 µM
[33]
  TGI: > 100 µM
[35]
  TGI: > 100 µM
[36]
  TGI: > 100 µM
[37]
  TGI: > 100 µM
[39]
  TGI: > 100 µM
[62]
  TGI: 61.5 µM
[41]
  TGI: > 100 µM
[63]
  TGI: > 100 µM
[64]
  TGI: > 100 µM
[43]
  TGI: > 100 µM
[44]
  TGI: > 100 µM
[65]
  TGI: > 100 µM
[66]
  TGI: > 100 µM
[45]
  TGI: > 100 µM
[46]
  TGI: > 100 µM
[49]
  TGI: > 100 µM
[50]
  TGI: > 100 µM
[51]
  TGI: > 100 µM

## COP(=O)(OC)C(O)/C=C/c1ccco1 (stereo not given)
[1]
  TGI: > 100 µM
[52]
  TGI: > 100 µM
[2]
  TGI: > 100 µM
[3]
  TGI: > 100 µM
[53]
  TGI: > 100 µM
[4]
  TGI: > 100 µM
[54]
  TGI: > 100 µM
[55]
  TGI: > 100 µM
[6]
  TGI: > 100 µM
[7]
  TGI: > 100 µM
[8]
  TGI: > 100 µM
[9]
  TGI: > 100 µM
[10]
  TGI: > 100 µM
[11]
  TGI: > 100 µM
[14]
  TGI: > 100 µM
[15]
  TGI: > 100 µM
[56]
  TGI: > 100 µM
[57]
  TGI: > 100 µM
[18]
  TGI: > 100 µM
[19]
  TGI: > 100 µM
[20]
  TGI: > 100 µM
[21]
  TGI: > 100 µM
[22]
  TGI: > 100 µM
[24]
  TGI: > 100 µM
[26]
  TGI: > 100 µM
[58]
  TGI: > 100 µM
[27]
  TGI: > 100 µM
[59]
  TGI: > 100 µM
[28]
  TGI: > 100 µM
[29]
  TGI: > 100 µM
[30]
  TGI: > 100 µM
[60]
  TGI: > 100 µM
[31]
  TGI: > 100 µM
[61]
  TGI: > 100 µM
[32]
  TGI: > 100 µM
[33]
  TGI: > 100 µM
[35]
  TGI: > 100 µM
[36]
  TGI: > 100 µM
[37]
  TGI: > 100 µM
[39]
  TGI: > 100 µM
[63]
  TGI: > 100 µM
[42]
  TGI: > 100 µM
[64]
  TGI: > 100 µM
[43]
  TGI: > 100 µM
[44]
  TGI: > 100 µM
[65]
  TGI: > 100 µM
[66]
  TGI: > 100 µM
[45]
  TGI: > 100 µM
[46]
  TGI: > 100 µM
[49]
  TGI: > 100 µM
[50]
  TGI: > 100 µM
[51]
  TGI: > 100 µM

## CC(=O)O[C@H]1[C@@H](OC2CCCC2(c2ccccc2)c2ccccc2)O[N+]([O-])=C[C@@]12COCc1cc3c(cc12)OCO3 (stereo not given in full)
[1]
  TGI: 11.3 µM
[52]
  TGI: 30.7 µM
[2]
  TGI: 22.6 µM
[3]
  TGI: > 28.4 µM
[53]
  TGI: > 100 µM
[4]
  TGI: 15.1 µM
[54]
  TGI: > 31.2 µM
[5]
  TGI: 31.5 µM
[55]
  TGI: > 45.2 µM
[6]
  TGI: 5.35 µM
[7]
  TGI: 52.1 µM
[8]
  TGI: > 43.6 µM
[9]
  TGI: 15.8 µM
[10]
  TGI: > 100 µM
[11]
  TGI: 14.1 µM
[14]
  TGI: 67 µM
[16]
  TGI: > 24.5 µM
[56]
  TGI: > 51.5 µM
[17]
  TGI: 34.6 µM
[57]
  TGI: 14.3 µM
[18]
  TGI: > 91.6 µM
[19]
  TGI: > 22.9 µM
[20]
  TGI: 25.9 µM
[21]
  TGI: 49 µM
[22]
  TGI: > 45.4 µM
[23]
  TGI: > 100 µM
[24]
  TGI: > 100 µM
[25]
  TGI: > 24.7 µM
[26]
  TGI: > 25.7 µM
[58]
  TGI: 14.9 µM
[27]
  TGI: 14.4 µM
[59]
  TGI: > 100 µM
[28]
  TGI: 22 µM
[29]
  TGI: > 100 µM
[30]
  TGI: > 100 µM
[60]
  TGI: > 100 µM
[31]
  TGI: 22.2 µM
[61]
  TGI: > 100 µM
[32]
  TGI: > 39.6 µM
[33]
  TGI: > 23.7 µM
[35]
  TGI: > 58.2 µM
[36]
  TGI: > 25.9 µM
[37]
  TGI: 37.2 µM
[39]
  TGI: 4.71 µM
[62]
  TGI: > 43.2 µM
[41]
  TGI: 11.9 µM
[63]
  TGI: 7.67 µM
[64]
  TGI: > 86.2 µM
[43]
  TGI: 17.5 µM
[44]
  TGI: > 23.6 µM
[66]
  TGI: 19.3 µM
[45]
  TGI: > 47.5 µM
[46]
  TGI: 7.67 µM
[49]
  TGI: > 26.6 µM
[50]
  TGI: 16.8 µM
[51]
  TGI: 9.11 µM
